Test results as given in patent publication US20060078919A1, “Diagnostic test kit and methods of diagnosis and treatment of helicobacter SPP. associated infections” (Harry C. Gurney Janice Gurney, priority 2004, published 2006).

System: Helicobacter infection
Assay: Vac A treatment of patients with pemphygus, allergic dermatitis and atopy
Format: in vivo
Conditions: more chronic and persistent cases, 25 to 75 mg bid
Description: Vacuolating Toxin A (recombinant Vac A; Austral Biologicals, catalog number HPA-5010-4) at 0.01 mg/ml in bacteriostatic water and 0.2 ml was injected subcutaneously 2-6 times per day at intervals of at least one hour to patients with various conditions associated with evidence of Helicobacter infection.

CN(C)CCOC(c1ccccc1)c1ccccc1 [diphenhydramine]
use as supplement to Vac A therapy: used successfully
